Source: patent US7842294B2, “Proteins belonging to the Bcl-2 family and fragments thereof, and their use in cancer patients” (Survac APS, priority 2003, dated 2010)
Ends that are not written are not given here.

Tests used:
[1] = system: peptide epitope-specific interferon-γ releasing effector cells in PBL; assay: IFN-γ ELISPOT on PBL stimulated once in vitro with peptide; format: cell-based, human; details: for healthy individuals with CTL response: 12 healthy HLA-A2 positive individuals
Description: To extend the sensitivity of the ELISPOT assay, PBL were stimulated once in vitro prior to analysis. At day 0, PBL or crushed lymph nodes were thawed and plated in 2 ml/well at a concentration of 2×10^6 cells in 24-well plates (Nunc, Denmark) in X-vivo medium (Bio Whittaker, Walkersville, Md.), 5% heat-inactivated human serum, and 2 mM of L-glutamine in the presence of 10 μM of peptide. Two days later 20 IU/ml recombinant interleukin-2 (IL-2) (Chiron, Ratingen, Germany) was added to the cultures. The cultured cells were tested for reactivity in the ELISPOT on day 12.
The ELISPOT assay was used to quantify peptide epitope-specific interferon-γ releasing effector cells as described previously (4). Briefly, nitrocellulose bottomed 96-well plates (MultiScreen MAIP N45, Millipore, Hedehusene, Denmark) were coated with anti-IFN-γ antibody (1-D1K, Mabtech, Nacka, Sweden). The wells were washed, blocked by X-vivo medium, and cells added in duplicates at different cell concentrations. Peptides were then added to each well and the plates were incubated overnight. The following day, media was discarded and the wells were washed prior to addition of biotinylated secondary antibody (7-B6-1-Biotin, Mabtech). The plates were incubated for 2 hours, washed and Avidin-enzyme conjugate (AP-Avidin, Calbiochem, Life Technologies) was added to each well. Plates were incubated at RT for 1 hour and the enzyme substrate NBT/BCIP (Gibco, Life Technologies) was added to each well and incubated at RT for 5-10 min. The reaction was terminated by washing with tap-water upon the emergency of dark purple spots. The spots were counted using the ImmunoSpot® Series 2.0 Analyzer (CTL Analyzers, LLC, Cleveland, US) and the peptide specific CTL frequency could be calculated from the numbers of spot-forming cells. All assays were performed in triplicates for each peptide antigen.

T2 cells = assay: 51Cr-release cytotoxicity assay with bcl208-isolated T cells; format: cell-based, human; details: bcl208 reactive T cells enriched from a breast cancer patient, day 5
[2] = system: HLA-A2 positive breast cancer cell line MDA-MB-231; assay: as above; format: cell-based, human; details: enriched bcl208 reactive T cells, Bcl-2 expressing
[3] = system: antigen-specific CTL in PBL; assay: Granzyme B (GrB) ELISPOT; format: cell-based, human
Description: The Granzyme B (GrB) ELISPOT assay was used for measuring antigen-specific CTL cytotoxicity as described. Briefly, nitrocellulose bottomed 96-well plates (MultiScreen MAIP N45, Millipore) were coated with GrB Capture Antibody (BD Biosciences, Brondby, Denmark). The wells were washed and blocked by X-vivo medium with 5% human serum. The cells were added at different cell concentrations. T2 cells and peptides were then added to each well and the plates were incubated 4 hours, medium was discarded and the wells were washed prior to addition of GrB Detection Antibody (BD Biosciences). The plates were incubated for 2 hours, washed and Avidin horseradish peroxidase (BD Biosciences) was added to each well. Plates were incubated at RT for 1 hour AEC Substrate Reagent (BD Biosciences) was added to each well and incubated at RT for 5-10 min. The reaction was terminated by washing with tap-water upon the emergency of red spots. The spots were counted and the peptide specific CTL frequency was calculated like for the INF-γ ELISPOT. All assays were performed in duplicate or triplicates for each peptide antigen.

HLA-A2 = target: T1, HLA-A2 (Homo sapiens, UniProt P04439, D140Y/D185E/D98H/E176V/E277Q/G131W/G231S/I119V/I121R/I166T/I218V/L300P/L318F/N151K/N90K/P208A/P217A/Q86G/Q94H/R138H/R169H/T345S); assay: Assembly assay for peptide binding to MHC class I molecules (stabilisation of HLA from TAP-deficient T2 cells); details: recovery of HLA-A2 measured at 50, 5, 0.5, 0.05 μM peptide; read-out: C50 (concentration of the peptide required for half maximal binding to HLA-A2)
T1 construct: empty HLA molecules released upon cell lysis, from the TAP-deficient cell line T2; endogenous in cells; host or cells: T2 (TAP-deficient cell line), metabolically labelled with [35S]-methionine and lysed
Description: This assembly assay is carried out as described previously (2), and it is based on stabilisation of the HLA molecule after loading of peptide to the peptide transporter deficient cell line T2. Subsequently, correctly folded stable HLA heavy chains are immunoprecipitated using conformation dependent antibodies and the peptide binding is quantitated.
The binding affinity of the synthetic peptides (Invitrogen, Carlsbad, Calif., USA) to HLA-A2 molecules, metabolically labelled with [^35S]-methionine, was measured in the assembly assay, as described previously. The assay is based on peptide-mediated stabilisation of empty HLA molecules released upon cell lysis, from the TAP-deficient cell line T2. Stably folded HLA-molecules were immune-precipitated using the HLA class I-specific, conformation-dependent mAb W6/32, and separated by isoelectric focusing (IEF) gel electrophoresis. MHC heavy chain bands were quantified using the ImageGauge Phosphorimager program (FUJI photo film Co., Carrollton, Tex., USA). The intensity of the band is directly related to the amount of peptide-bound class I MHC complex recovered during the assay. Subsequently, the extent of stabilisation of HLA-A2 is directly related to the binding affinity of the added peptide. The recovery of HLA-A2 was measured in the presence of 50, 5, 0.5, 0.05 μM of the relevant peptide. The C50 value was calculated for each peptide as the peptide concentration sufficient for half maximal stabilisation.
The amino acid sequence of the Bcl-2 protein was screened for the most probable HLA-A2 nona- and decamer peptide epitopes, using the main HLA-A2 specific anchor residues (2). […] The assembly assay is based on stabilisation of the class I molecule after loading of different concentrations of peptide to the TAP-deficient cell line T2. Subsequently correctly folded stable MHC heavy chains are immunoprecipitated using conformation-dependent antibodies.

[4] = system: HLA-A2 negative breast cancer cell line ZR75-1
CD8+ T cells from PBL = assay: FACS analysis with Pro5 MHC pentamer staining; format: cell-based, human; details: breast cancer patient no. 36, PBL stimulated once in vitro, HLA-A2/Bcl-XL173-182 pentamer
[5] = PBL from 15 HLA-A2 positive breast cancer patients

Sequence | healthy individuals with CTL response [1] | patients with spontaneous CTL response [1, 5] | patients with spontaneous CTL response (%) [1, 5] | CLL patients with Bcl-2 response ([1]; ten HLA-A2 positive CLL patients, reactivity against bcl208 and bcl214, not broken down by peptide) | AML patients with Bcl-2 response ([1]; three AML patients, reactivity against bcl208 and bcl214, not broken down by peptide) | pancreatic cancer patients with CTL response ([1]; two HLA-A2 positive pancreatic cancer patients) | killing of T2 cells loaded with peptide versus unloaded (T2 cells) | lysis of MDA-MB-231 cells [2] | GrB release in controls ([3]; breast cancer patient no. 16 and healthy control h1) | recognition of peptide-pulsed T2 cells by CTL clones (GrB ELISPOT) ([3]; clones from HLA-A2/bcl208 bead-isolated cells, data not shown) | EC50 (HLA-A2) | cytotoxicity against ZR75-1 cells [4] | CTL response in cancer patients of different origin (in words) ([1]; PBL from HLA-matched cancer patients) | breast cancer patients hosting an immune response ([1]; eighteen HLA-A2+ breast cancer patients, responder >25 spots per 10^5 cells) | peptide specific, IFNγ secreting CD8+ T cells ([1]; same CD8+ culture of breast cancer patient no. 36) | melanoma patients hosting an immune response ([1]; six HLA-A2+ melanoma patients, responder >25 spots per 10^5 cells) | frequency of peptide specific CTL (GrB ELISPOT) ([3]; Bcl-XL reactive breast cancer patients no. 35 and 36) | GrB release in control patient ([3]; breast cancer patient no. 17) | pentamer positive T cells among CD8+ T cells (CD8+ T cells from PBL)
PLFDFSWLSL [bcl208] | one | twelve | ≈ 80% | five | two | both | only T2 cells pulsed with bcl208 were killed | efficiently lysed | no GrB release was detected | Several of these clones showed specific recognition | 7 µM | no cytotoxicity was observed | – | – | – | – | – | – | –
YLNDHLEPWI (Peptide derived from Bcl-XL) [Bcl-XL173-182] | no responses were detected | – | – | – | – | – | – | – | – | – | – | – | strong and frequent CTL responses | nine out of eighteen | around 1.4% | two out of six | 50-100 peptide specific CTL per 3×10^5 cells | no GrB release was detected | 0.24%
